Experimental data published in patent US20250129069A1, “TRIAZOLO WRN INHIBITORS” (Nimbus Wadjet, Inc., priority 2023, published 2025).
pEC50, pIC50: −log10 of the molar value. Read-outs that look alike come from different tables or passages of the source.

Key:
[1] = biological target: human Werner helicase (WRN, amino acids 517-1235 with L1074F point mutation) (Homo sapiens (Human), UniProt Q14191, L1074F); test: WRN (BV08) ADP-Glo assay; format: biochemical; details: human WRN (aa 517-1235, L1074F), read-out: ADP-Glo_hWRN_IC50
human Werner helicase (WRN, amino acids 517-1235 with L1074F point mutation), sequence (Q14191 other isoform, or with tags, fused parts or gaps L1074F (already in the parent)): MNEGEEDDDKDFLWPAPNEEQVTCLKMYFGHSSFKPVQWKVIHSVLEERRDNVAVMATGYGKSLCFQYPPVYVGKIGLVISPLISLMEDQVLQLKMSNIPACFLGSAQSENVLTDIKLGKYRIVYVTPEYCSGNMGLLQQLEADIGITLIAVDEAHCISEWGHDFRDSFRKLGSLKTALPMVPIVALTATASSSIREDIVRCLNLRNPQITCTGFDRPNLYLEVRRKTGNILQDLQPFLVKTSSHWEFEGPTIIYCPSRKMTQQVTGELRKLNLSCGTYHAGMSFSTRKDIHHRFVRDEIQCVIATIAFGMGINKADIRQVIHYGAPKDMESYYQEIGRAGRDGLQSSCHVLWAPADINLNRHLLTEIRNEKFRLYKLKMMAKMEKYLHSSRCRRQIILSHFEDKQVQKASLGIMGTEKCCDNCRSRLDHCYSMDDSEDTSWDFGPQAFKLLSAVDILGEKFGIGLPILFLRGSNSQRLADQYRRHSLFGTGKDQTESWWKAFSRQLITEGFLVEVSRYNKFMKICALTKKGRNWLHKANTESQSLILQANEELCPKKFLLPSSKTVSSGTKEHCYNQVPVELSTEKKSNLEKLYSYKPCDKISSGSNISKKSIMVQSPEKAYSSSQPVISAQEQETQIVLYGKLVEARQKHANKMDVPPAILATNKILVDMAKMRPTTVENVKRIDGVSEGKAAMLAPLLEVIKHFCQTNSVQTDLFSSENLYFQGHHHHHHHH
Method in brief: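 Untagged WRN 517-1235 (L1074F), Sf9/baculovirus-expressed, 0.15 nM, preincubated 15 min with compound, then 5 μM ATP and 0.1 nM annealed DNA duplex added; 60 min at 25 °C in Bicine pH 7.5, 1 mM MgCl2, 1% DMSO. ADP-Glo luminescence; % inhibition vs DMSO and 20 μM NSC-617145 controls, four-parameter IC50 fit.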

[2] = tested on: p21 induction in HCT 116 cells; test: p21 induction in cells (In-Cell Western, p21/GAPDH ratio); format: cell-based; details: 24 h compound incubation, read-out: p21_EC50
Method in brief: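 HCT 116 cells treated 24 h at 37° C with 11-point, 2-fold dilutions typically from 10 μM, in duplicate. Fixed cells co-stained for p21 (800 nm) and GAPDH (700 nm) by In-Cell Western. p21/GAPDH ratio normalised between DMSO and reference WRN inhibitor controls, and EC50 obtained by nonlinear regression.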

| Compound | pIC50 [1] | pEC50 ([2]; Homo sapiens) | pEC50 [2] |
| --- | --- | --- | --- |
| CCc1c(N2CCN(C(=O)c3ncnc(C)c3O)[C@H]3CC[C@@H]32)c(=O)c2nn(-c3ccnc(OC)c3)nc2n1CC(=O)NC12CC(C3CC3)(C1)C2 [Compound I-10, N-(3-cyclopropylbicyclo[1.1.1]pentan-1-yl)-2-(5-ethyl-6-((1S,6S)-5-(5-hydroxy-6-methylpyrimidine-4-carbonyl)-2,5-diazabicyclo[4.2.0]octan-2-yl)-2-(2-methoxypyridin-4-yl)-7-oxo-2,7-dihydro-4H-[1,2,3]triazolo[4,5-b]pyridin-4-yl)acetamide] | 7.30 to 8.30 | ≥ 6.30 |  |
| CCc1c(N2CCN(C(=O)c3c(OC)ncc(C4CC4)c3O)CC2)c(=O)c2nn(-c3ccnc(OC)c3)nc2n1CC(=O)NC12CC(C(C)C)(C1)C2 [Compound I-65, 2-{6-[4-(5-cyclopropyl-4-hydroxy-2-methoxypyridine-3-carbonyl)piperazin-1-yl]-5-ethyl-2-(2-methoxypyridin-4-yl)-7-oxo-2H,4H,7H-[1,2,3]triazolo[4,5-b]pyridin-4-yl}-N-[3-(propan-2-yl)bicyclo[1.1.1]pentan-1-yl]acetamide] | 7.30 to 8.30 | 5.70 to 6.30 |  |
| CCc1c(N2CCN(C(=O)c3cccc4ncoc34)[C@H]3CC[C@@H]32)c(=O)c2nn(-c3ccnc(OC)c3)nc2n1CC(=O)Nc1ccc(C(F)(F)F)cc1Cl [Compound I-107, 2-{6-[(1S,6S)-5-(1,3-benzoxazole-7-carbonyl)-2,5-diazabicyclo[4.2.0]octan-2-yl]-5-ethyl-2-(2-methoxypyridin-4-yl)-7-oxo-2H,4H,7H-[1,2,3]triazolo[4,5-b]pyridin-4-yl}-N-[2-chloro-4-(trifluoromethyl)phenyl]acetamide] | 7.30 to 8.30 | ≥ 6.30 |  |
| CCc1c(N2CCN(C(=O)c3ncnc(C)c3O)CC2)c(=O)c2nn(-c3ccnc(OC)c3)nc2n1CC(=O)NC1CC2(CCC2)C1 [Compound I-118, 2-{5-ethyl-6-[4-(5-hydroxy-6-methylpyrimidine-4-carbonyl)piperazin-1-yl]-2-(2-methoxypyridin-4-yl)-7-oxo-2H,4H,7H-[1,2,3]triazolo[4,5-b]pyridin-4-yl}-N-{spiro[3.3]heptan-2-yl}acetamide] | 7.30 to 8.30 | 5.70 to 6.30 |  |
| CCc1c(N2CCN(C(=O)c3ncccc3OC)[C@H]3CC[C@@H]32)c(=O)c2nn(C3=CCOCC3)nc2n1CC(=O)NC12CC(C(C)C)(C1)C2 [Compound I-204, 2-[2-(3,6-dihydro-2H-pyran-4-yl)-5-ethyl-6-[(1S,6S)-5-(3-methoxypyridine-2-carbonyl)-2,5-diazabicyclo[4.2.0]octan-2-yl]-7-oxo-2H,4H,7H-[1,2,3]triazolo[4,5-b]pyridin-4-yl]-N-[3-(propan-2-yl)bicyclo[1.1.1]pentan-1-yl]acetamide] | 7.30 to 8.30 | 5.70 to 6.30 |  |
| CCc1c(C2=CCN(C(=O)c3ncnc(C)c3O)CC2(C)C)c(=O)n2nc(C3=CCOCC3)nc2n1CC(=O)Nc1ccc(C(F)(F)F)cc1Cl [Compound I-174, N-[2-chloro-4-(trifluoromethyl)phenyl]-2-[2-(3,6-dihydro-2H-pyran-4-yl)-5-ethyl-6-[1-(5-hydroxy-6-methylpyrimidine-4-carbonyl)-3,3-dimethyl-1,2,3,6-tetrahydropyridin-4-yl]-7-oxo-4H,7H-[1,2,4]triazolo[1,5-a]pyrimidin-4-yl]acetamide] | 7.30 to 8.30 | ≥ 6.30 |  |
| CCc1c(N2CCN(C(=O)c3ccc4cccc(O)c4n3)[C@H]3CC[C@@H]32)c(=O)c2nn(C3=CCOCC3)nc2n1CC(=O)NC12CC(C(C)C)(C1)C2 [Compound I-158, 2-[2-(3,6-dihydro-2H-pyran-4-yl)-5-ethyl-6-[(1S,6S)-5-(8-hydroxyquinoline-2-carbonyl)-2,5-diazabicyclo[4.2.0]octan-2-yl]-7-oxo-2H,4H,7H-[1,2,3]triazolo[4,5-b]pyridin-4-yl]-N-[3-(propan-2-yl)bicyclo[1.1.1]pentan-1-yl]acetamide] | 7.30 to 8.30 | ≥ 6.30 |  |
| CCc1c(N2CCN(C(=O)c3ncnc(C)c3O)[C@H]3CC[C@@H]32)c(=O)c2nn(-c3ccnc(C)c3)nc2n1CC(=O)NC12CC(C3CC3)(C1)C2 [Compound I-84, N-{3-cyclopropylbicyclo[1.1.1]pentan-1-yl}-2-{5-ethyl-6-[(1S,6S)-5-(5-hydroxy-6-methylpyrimidine-4-carbonyl)-2,5-diazabicyclo[4.2.0]octan-2-yl]-2-(2-methylpyridin-4-yl)-7-oxo-2H,4H,7H-[1,2,3]triazolo[4,5-b]pyridin-4-yl}acetamide] | 7.30 to 8.30 |  | ≥ 6.30 |
| CCc1c(N2CCN(C(=O)c3[nH]cnc3C#N)[C@H]3CC[C@@H]32)c(=O)c2nn(C3=CCOCC3)nc2n1CC(=O)NC12CC(C(C)C)(C1)C2 [Compound I-170, 2-{6-[(1S,6S)-5-(4-cyano-1H-imidazole-5-carbonyl)-2,5-diazabicyclo[4.2.0]octan-2-yl]-2-(3,6-dihydro-2H-pyran-4-yl)-5-ethyl-7-oxo-2H,4H,7H-[1,2,3]triazolo[4,5-b]pyridin-4-yl}-N-[3-(propan-2-yl)bicyclo[1.1.1]pentan-1-yl]acetamide] | 7.30 to 8.30 | < 5.30 |  |
| CCc1c(N2CCN(C(=O)c3c(N)ncnc3OC)[C@H]3CC[C@@H]32)c(=O)c2nn(C3=CCOCC3)nc2n1CC(=O)NC12CC(C3CC3)(C1)C2 [Compound I-193, 2-{6-[(1S,6S)-5-(4-amino-6-methoxypyrimidine-5-carbonyl)-2,5-diazabicyclo[4.2.0]octan-2-yl]-2-(3,6-dihydro-2H-pyran-4-yl)-5-ethyl-7-oxo-2H,4H,7H-[1,2,3]triazolo[4,5-b]pyridin-4-yl}-N-{3-cyclopropylbicyclo[1.1.1]pentan-1-yl}acetamide] | 7.30 to 8.30 | 5.70 to 6.30 |  |
| CCc1c(N2CCN(C(=O)OC)[C@H]3CC[C@@H]32)c(=O)c2nn(C3=CCOCC3)nc2n1CC(=O)NC12CC(C(C)C)(C1)C2 [Compound I-162, methyl (1S,6S)-5-[2-(3,6-dihydro-2H-pyran-4-yl)-5-ethyl-7-oxo-4-({[3-(propan-2-yl)bicyclo[1.1.1]pentan-1-yl]carbamoyl}methyl)-2H,4H,7H-[1,2,3]triazolo[4,5-b]pyridin-6-yl]-2,5-diazabicyclo[4.2.0]octane-2-carboxylate] | 7.30 to 8.30 | ≥ 6.30 |  |
| CCc1c(N2CCN(C(=O)c3ncnc(C)c3O)CC2)c(=O)c2nn(-c3ccnc(C)c3)nc2n1CC(=O)Nc1ccc(C(F)(F)F)cc1Cl [Compound I-7, N-(2-chloro-4-(trifluoromethyl)phenyl)-2-(5-ethyl-6-(4-(5-hydroxy-6-methylpyrimidine-4-carbonyl)piperazin-1-yl)-2-(2-methylpyridin-4-yl)-7-oxo-2,7-dihydro-4H-[1,2,3]triazolo[4,5-b]pyridin-4-yl)acetamide] | ≥ 8.30 | ≥ 6.30 |  |
| CCc1c(N2CCN(C(=O)c3ncnc(C)c3O)CC2)c(=O)c2nn(-c3ccn(C4CC4)n3)nc2n1CC(=O)Nc1ccc(C(F)(F)F)cc1Cl [Compound I-8, N-(2-chloro-4-(trifluoromethyl)phenyl)-2-(2-(1-cyclopropyl-1H-pyrazol-3-yl)-5-ethyl-6-(4-(5-hydroxy-6-methylpyrimidine-4-carbonyl)piperazin-1-yl)-7-oxo-2,7-dihydro-4H-[1,2,3]triazolo[4,5-b]pyridin-4-yl)acetamide] | ≥ 8.30 | ≥ 6.30 |  |
| CCc1c(N2CCN(C(=O)c3c(OC)ncc(C)c3O)CC2)c(=O)c2nn(C3=CCOCC3)nc2n1CC(=O)NC12CC(C(C)C)(C1)C2 [Compound I-111, 2-[2-(3,6-dihydro-2H-pyran-4-yl)-5-ethyl-6-[4-(4-hydroxy-2-methoxy-5-methylpyridine-3-carbonyl)piperazin-1-yl]-7-oxo-2H,4H,7H-[1,2,3]triazolo[4,5-b]pyridin-4-yl]-N-[3-(propan-2-yl)bicyclo[1.1.1]pentan-1-yl]acetamide] | 7.30 to 8.30 | ≥ 6.30 |  |
| CCc1c(N2CCN(C(=O)c3c(OC)nc(C(F)F)c(C)c3O)[C@H]3CC[C@@H]32)c(=O)c2nn(C3=CCOCC3)nc2n1CC(=O)NC12CC(C3CC3)(C1)C2 [Compound I-190, N-{3-cyclopropylbicyclo[1.1.1]pentan-1-yl}-2-{6-[(1S,6S)-5-[6-(difluoromethyl)-4-hydroxy-2-methoxy-5-methylpyridine-3-carbonyl]-2,5-diazabicyclo[4.2.0]octan-2-yl]-2-(3,6-dihydro-2H-pyran-4-yl)-5-ethyl-7-oxo-2H,4H,7H-[1,2,3]triazolo[4,5-b]pyridin-4-yl}acetamide] | 7.30 to 8.30 | ≥ 6.30 |  |
| CCc1c(C2=CCN(C(=O)c3ncnc(C)c3O)C[C@@H]2C)c(=O)c2nn(-c3ccnc(OC)c3)nc2n1CC(=O)NC12CC(C(C)C)(C1)C2 (single isomer, unassigned) [Compound I-81] | 7.30 to 8.30 | 5.70 to 6.30 |  |
| CCc1c(N2CCN(C(=O)c3ncnc(C)c3O)[C@H]3CC[C@@H]32)c(=O)c2nn(-c3ccnc(OC)c3)nc2n1CC(=O)NC12CC(OC(F)(F)F)(C1)C2 [Compound I-40, 2-{5-ethyl-6-[(1S,6S)-5-(5-hydroxy-6-methylpyrimidine-4-carbonyl)-2,5-diazabicyclo[4.2.0]octan-2-yl]-2-(2-methoxypyridin-4-yl)-7-oxo-2H,4H,7H-[1,2,3]triazolo[4,5-b]pyridin-4-yl}-N-[3-(trifluoromethoxy)bicyclo[1.1.1]pentan-1-yl]acetamide] | 7.30 to 8.30 |  | ≥ 6.30 |
